{"source": "patent US20230348394A1", "about": "“COMPOSITIONS AND METHODS FOR TREATING MUSCULAR DYSTROPHIES” (The Regents of the University of California, priority 2020, published 2023)", "key": {"[1]": {"test_system": "H2K mdx myotubes", "assay": "Differentiation of mdx myotubes (fusion index, MYOG gene expression)", "assay_type": "cell-based, murine", "conditions": "mdx myotubes, 1, 5 and 10 μM"}, "[2]": {"test_system": "alpha-dystroglycan (α-DG) at the cell surface", "assay": "Cell surface protein biotinylation and immunoblot, C2C12 myotubes", "assay_type": "cell-based, murine", "conditions": "5 μM, 48 hours", "method": "Myotubes treated for 48 hrs were lysed using RIPA buffer (Thermo Fisher Scientific) containing Halt Protease Inhibitor Cocktail (Thermo Fisher Scientific). Cell lysates in RIPA buffer were rocked for 1 hr at 4° C. and centrifuged at 1,000 RPM for 30 mins at 4° C. The supernatant was collected, quantified for protein concentration using the DC protein assay (Bio-Rad), and normalized to 2 mg/ml in water and Laemmli sample buffer with a final concentration of 10% glycerol (Sigma-Aldrich), 5% beta-mercaptoethanol (Sigma-Aldrich), 3% sodium dodecyl sulfate (Sigma-Aldrich), and 0.05% bromophenol blue (Sigma-Aldrich). For SDS-PAGE, samples were heated to 95° C. for 2 mins before loading 40 μg onto 4-12% tris-glycine or bis-tris polyacrylamide gels (Novex), electrophoresed for 2 hrs at 100 volts at RT, and transferred to a nitrocellulose membrane for 2 hrs at 100 volts at 4° C. Ponceau S staining was performed to visualize protein loading and verify protein transfer. […] Autoradiography films were developed using a SRX-101A tabletop processor (Konica Minolta), scanned to a digital file, and analyzed by densitometry of bands using ImageJ version 1.51 s. […]"}, "[3]": {"test_system": "SSPN gene expression", "assay": "SSPN gene expression in tibialis anterior after intramuscular injection in mdx mice", "assay_type": "in vivo", "conditions": "4 hours", "method": "For the preliminary safety assessment of OT-9, we performed IP injections in 6 month old C57/B16 males. The mice were injected with 100 μl of vehicle (5% DMSO (Sigma), 95% PBS), 100 μl of 30 mg/kg of OT-9 in vehicle, or 100 μl of 50 mg/kg of OT-9 in vehicle (n=1 mouse per treatment). […] For assessment of activity, 20-weeks old male mdx littermates were injected in both tibialis anterior muscles with vehicle (5% DMSO, 95% PBS) or 86 μg of OT-9. Two mice were injected in both TAs with vehicle and three mice were injected in both TAs with 200 of OT-9 (9.4 mM solution containing 86 μg of OT-9). After 4 hours, the muscles were harvested and processed for gene expression analysis. For assessment of activity of OT-9m after local administration, 19-22-weeks old mdx males were injected in both tibialis anterior muscles with vehicle (5% DMSO, 95% PBS) or 3 mg/kg and 10 mg/kg of OT-9m. After 4 hours, the muscles were harvested and processed for gene expression analysis. For assessment of activity of OT-9m after systemic administration, 13-weeks old mdx males were injected subcutaneously with vehicle (4% PEG-200 in hydroxypropyl-b-cyclodextrin) or 20 mg/kg/day of OT-9m. After 13 days of treatment, the muscles were harvested and processed for gene expression analysis.\nAfter the preliminary safety evaluation, we tested the ability of OT-9 to increase SSPN gene expression in vivo. […] Five 20-weeks old male mdx littermates were subjected to intramuscular injections in both tibialis anterior (TA) muscles. Two mice were injected in both TAs with vehicle and […] were injected with 3 mg/kg of OT-9 (molar equivalent of 9.4 mM used in the safety assessment). After 4 hours of treatment, the TAs were harvested and processed for gene expression analysis. […] After determination that OT-9 is capable of increasing SSPN gene expression in vivo, we evaluated one of its derivatives, OT-9m, for its ability to increase SSPN expression in mdx mice. OT-9m was chosen based on its improved activity in vitro compared to OT-9 (compare, Table 1, entries 1 & 14). To assess activity OT-9m in vivo after local administration, eleven 19-22 weeks old male mdx mice were subjected to intramuscular injections in both tibialis anterior (TA) muscles. Four mice were injected in both TAs with vehicle, three mice were injected with 3 mg/kg of OT-9m and four mice were injected with 10 mg/kg of OT-9m. After 4 hours of treatment, the TAs were harvested and processed for gene expression analysis."}}, "data": [{"smiles": "CCN(CC)c1ccc2cc(C(=O)Nc3ccc(C(=O)N4CCCCCC4)cc3)c(=O)oc2c1", "note": "[OT-9]", "values": [{"measurement": "MYOG gene expression", "setting": "[1]", "result": "slight increase"}, {"measurement": "fusion index", "setting": "[1]", "result": "slight increase"}, {"measurement": "increase of core α-DG at the cell surface", "setting": "[2]", "result": 1.6, "unit": "fold"}, {"measurement": "increase of glycosylated α-DG at the cell surface", "setting": "[2]", "result": 1.8, "unit": "fold"}, {"measurement": "increase in SSPN gene expression relative to the vehicle control-treated group", "setting": "[3]; 3 mg/kg intramuscular, tibialis anterior", "result": 1.7, "unit": "fold"}, {"measurement": "adverse effects after local injection", "setting": "[3]; OT-9 3 mg/kg intramuscular, both TA", "result": "No adverse effects"}]}]}
